Data from US20220098197A1, “SALTS OF HETEROCYCLIC COMPOUND AND USE THEREOF” (priority 2019, published 2022).

Assays:
neutrophils = assay: PGD2-induced neutrophils migration in vitro, Boyden chamber (Example 2); assay type: cell-based, mice; settings: pretreatment CT-NA 1 μM or 10 μM, OC459 10 μM; 4 hrs; P<0.01
Experimental: The method for isolating neutrophils and testing effect of CT-NA on neutrophils migration was briefly described as follows. 1.5% glycogen was injected intragastrically into mice at a dose of 20 ml/kg body weight. 4 hrs later, the mice were euthanized to isolate neutrophils from the peritoneal lavage. Effect of CT-NA on the migration of neutrophils was detected using the Boyden chamber assay kit (3 um pore size, Billerica, Mass.). PGD2 was used as a chemoattractant because the activated PGD2/CRTH2 receptors promoted the neutrophils migration. Firstly, the isolated neutrophils were inoculated at 4×10^5 cells/ml into the upper side of well of the Boyden chamber, and the lower chamber contained different concentrations of PGD2 (0.1, 1 and 10 μM), and the neutrophils were allowed to migrate towards PGD2 for 4 hrs at 37° C. in order to find out the suitable PGD2 concentration. After evaluation of the suitable PGD2 concentration, the migration of neutrophils pretreated with CT-NA (1 and 10 μM) and OC459 (10 μM), another effective CRTH2 inhibitor, toward PGD2 (1 μM) was assessed for 4 hrs.

CS-induced ALI mice = assay: CS-induced lung injury model: partial pressure of oxygen (PO2); assay type: in vivo, Balb/c mice; settings: CT-NA 10 and 30 mg/kg intragastric; 24 hrs after last CS exposure; p<0.01
Experimental: Specific pathogen-free (SPF) female Balb/c mice (22-28 g; aged 8 weeks) were purchased from Shanghai SIPPR-BK Experimental Animal Co., Ltd. […] Model preparation: The mice were randomly divided into 5 groups (12 mice in each group), which were the control group (the mice were exposed to fresh air), the saline group (the mice were exposed to cigarette smoke), dexamethasone (Dex) group (1 mg/kg) (the mice were exposed to cigarette smoke), CT-NA 10 mg/kg group and CT-NA 30 mg/kg group (the mice were exposed to cigarette smoke). According to the grouping, the mice were intragastrically administered saline, Dex and CT-NA, respectively. Thereafter, the mice were exposed to fresh air or cigarette smoke generated from 3R4F research-grade cigarettes (containing about 600 mg TPM/m^3 and 29.9 mg nicotine/m^3) in a cuboid plastic box (65×50x×45 cm). Ten cigarettes were burned every day for seven days. After one cigarette was burned, the next cigarette was ignited. The daily body weight and general condition of the mice were checked. 24 hrs after the last exposure to the cigarette smoke, the partial pressure of oxygen (PO2) of all mice was measured by the Moor VMS-OXY™ measuring instrument, which was used to measure the oxygenated/deoxygenated hemoglobin concentration and oxygen saturation (percentage) in the microcirculation at the wavelength range of 500 to 650 nm. […]

[1] = Stability test (influencing factors: light, high temperature, high humidity); assay type: physicochemical
Experimental: Test process: An appropriate amount of each test sample was placed on a clean watch glass without a lid and then placed under the conditions of light 4500 lx±500 lx, high temperature of 60° C., high humidity of 92.5% RH for 5 days and 10 days, respectively. The properties and related substances were determined and the results were compared with the results at day 0 to observe the stability.
The test method for related substances was as follows.
Preparation of test sample solution: About 10 mg of each test sample was placed in a 10 ml volumetric flask, and 50% acetonitrile aqueous solution was added to dissolve sample, and diluted to the mark, shaken well, and filtered to obtain the test sample solution. A precise amount of 10 μl of the test sample solution was taken and injected according to the above chromatographic method, and the maximum single impurity and total impurity were calculated according to the area normalization method.

LPS-induced ALI mice = assay: LPS-induced ALI model: lung MPO activity assay; assay type: in vivo, Balb/c mice; settings: CT-NA 10 or 30 mg/kg (P<0.01, dose dependence), Dex 1 mg/kg (P<0.01)
Experimental: Specific pathogen-free (SPF) Balb/c mice (♂/♀; 20-26 g; 8 weeks old) were purchased from Shanghai SIPPR-BK Experimental Animal Co., Ltd. Mice were kept in an isolated ventilated cage in an environment of 40-60% humidity, 24±2° C., and 12 hrs/12 hrs dark-light cycle, and had free access to food and water. The method for preparing the LPS-induced ALI model was simply described as follows. The mice were randomly divided into a control group (12 mice) and an LPS group (48 mice). The LPS group (48 mice) was further divided into four subgroups (12 mice in each subgroup). The unanaesthetized mice in the four subgroups of LPS were intragastrically administered with normal saline (NS), CT-NA at 10 mg/kg or 30 mg/kg, and Dex at 1 mg/kg, respectively. One hour later, the mice were anesthetized with sodium pentobarbital (intraperitoneal injection at 40 mg/kg), and then subjected to intratracheal instillation of NS to control group and LPS (4 mg/kg) to all LPS subgroups. […] 24 hrs after LPS challenge, the oxygen saturation (SO2) of all mice was measured by a Moor VMS-OXY™ instrument which measured SO2 (%) in the microcirculation at the wavelength range of 500 to 650 nm.
The MPO activity assay procedure was as follows. […] Then MPO activity was determined by measuring the changes in absorbance at 460 nm via the standard curves by using MPO assay kits.

RAW264.7 macrophages = assay: In vitro ELISA assay, LPS- or PGD2-stimulated RAW264.7; assay type: cell-based, mouse; settings: CT-NA 10 and 100 μM, dose-dependent
Experimental: For ELISA and RT-PCR, RAW 264.7 macrophages were acclimated to two 12-well plates at 70-80% confluence. Thereafter, the medium in the 12-well plate was replaced with serum-free RPMI-1640 medium for 10-12 hrs and then exposed to CT-NA (10 and 100 μM) for 1 hour. One hour later, one 12-well plate was treated with LPS (100 ng/ml) for 24 hrs, and the other was treated with PGD2 (10 μM) for 24 hrs. After the treatment, the supernatant of the treated cells was collected to measure the protein levels of TNF-α, IL-1β, IL-6, and KC using ELISA kits according to the method of the instructions. Subsequently, RNA samples from each treated plate were extracted and reverse-transcripted into cDNA with HiScript5xQRTSuperMix, and then subjected to RT-PCR using BioRad CFX96 Touch™ real-time PCR detection system (San Diego, Calif.). Similarly, total RNAs extracted from treated isolated peritoneal macrophages were subjected to analyze the mRNA levels of IL-10, TNF-α, IL-6 and KC. The primers used in the RT-PCR reaction were shown in Table 2. β-actin was used as an internal control. The RT-PCR reactions were triplicated and the relative expression of target mRNA was normalized by the respective β-actin.

[2] = high temperature 60° C., Day 10
[3] = light condition 4500 lx±500 lx, Day 5
[4] = light condition 4500 lx±500 lx, Day 10

With `CN([C@@H]1CCc2c(CC(=O)[O-])c3cccnc3n2C1)S(=O)(=O)c1ccc(F)cc1.[Na+]` [Sodium salt hydrate] the “neutrophils migration induced by 1 μM PGD2” value (neutrophils) was “significantly reduced”, the “partial pressure of oxygen (PO2)” value (CS-induced ALI mice) was “significantly elevated” and the “stability under high temperature and high humidity conditions (in words)” value ([1]; 60° C., 92.5% RH, 5 and 10 days) was “relatively stable”. The “maximum single impurity %” value ([1]; Day 0) was 0.03%, the property ([1]; Day 0) was “white powder” and the total impurity % ([1]; Day 0) was 0.07%. For the same molecule, the “maximum single impurity %” value ([1]; high humidity 92.5% RH, Day 5) was 0.02%, the property ([1]; high humidity 92.5% RH, Day 5) was “white powder” and the total impurity % ([1]; high humidity 92.5% RH, Day 5) was 0.07%. For the same molecule, the “maximum single impurity %” value ([1]; high humidity 92.5% RH, Day 10) was 0.02%, the property ([1]; high humidity 92.5% RH, Day 10) was “white powder” and the total impurity % ([1]; high humidity 92.5% RH, Day 10) was 0.06%. For the same molecule, the “maximum single impurity %” value ([1]; high temperature 60° C., Day 5) was 0.02%, the property ([1]; high temperature 60° C., Day 5) was “white powder” and the total impurity % ([1]; high temperature 60° C., Day 5) was 0.07%. The “maximum single impurity %” value [1, 2] was 0.02%, the property [1, 2] was “white powder” and the total impurity % [1, 2] was 0.09%. The “maximum single impurity %” value [1, 3] was 0.06%, the property [1, 3] was “light yellow powder” and the total impurity % [1, 3] was 0.16%. The “maximum single impurity %” value [1, 4] was 0.15%, the property [1, 4] was “light yellow powder” and the total impurity % [1, 4] was 0.26%. For the same molecule, the “MPO activity in lung tissues” value (LPS-induced ALI mice) was “remarkably reduced”, the “protein expression of IL-1β, TNF-α, IL-6 and KC in response to LPS” value (RAW264.7 macrophages; LPS (100 ng/ml) 24 hrs) was “inhibited” and the “protein expression of IL-1β, TNF-α, IL-6 and KC in response to PGD2” value (RAW264.7 macrophages; PGD2 (10 μM) 24 hrs) was “inhibited”.
